Assays:
[1] = test system: adenoid cystic carcinomas of the salivary gland; conditions: despite increased expression of c-kit; cited from earlier work
CYP2C19 = CYP2C19 (Homo sapiens, UniProt P33261); conditions: off-target effect; cited from earlier work
CYP2A6 = target: T1, CYP2A6 (Homo sapiens, UniProt P11509); conditions: off-target effect; cited from earlier work
T1 sequence (P11509 1-494): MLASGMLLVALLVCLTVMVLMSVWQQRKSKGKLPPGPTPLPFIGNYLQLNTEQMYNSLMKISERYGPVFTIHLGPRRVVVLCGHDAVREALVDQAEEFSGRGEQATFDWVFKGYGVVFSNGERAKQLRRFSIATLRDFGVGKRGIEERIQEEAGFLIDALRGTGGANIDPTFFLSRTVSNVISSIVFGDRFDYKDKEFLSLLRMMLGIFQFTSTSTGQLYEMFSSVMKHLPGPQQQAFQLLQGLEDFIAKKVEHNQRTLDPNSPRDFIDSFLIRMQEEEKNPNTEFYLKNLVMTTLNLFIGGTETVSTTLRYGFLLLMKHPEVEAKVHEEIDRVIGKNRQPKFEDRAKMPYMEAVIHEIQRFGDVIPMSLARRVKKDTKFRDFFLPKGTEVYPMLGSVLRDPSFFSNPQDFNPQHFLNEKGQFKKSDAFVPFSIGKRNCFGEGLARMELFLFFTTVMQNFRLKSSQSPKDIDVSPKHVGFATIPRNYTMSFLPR

ER+/HER2− metastatic BC = assay: Retrospective study of metastatic BC patients treated with CDK4/6 inhibitors, classified R or NR by change in sum of diameters of target tumors after 6 months, with overall survival; format: in vivo, human; conditions: for Patients within the NR group / Number of non-responders (NR): at least a 20% increase in the sum of diameters of target tumors after 6 months; for Patients within the NR group: 10 NR of 24 patients; for Number of non-responders (NR) / Number of responders (R): samples separated by inhibitor; for Number of responders (R): at least a 30% decrease in the sum of diameters of target tumors after 6 months of treatment
Text: Here we describe a retrospective study analyzing plasma-based metabolites from a baseline (BL) sample and after 2-months (2M) of treatment of 24 women with ER+/HER2-− metastatic BC treated with CDK4/6 inhibitors, palbociclib or ribociclib.

Chain of CYP2C19 (P33261 whole entry): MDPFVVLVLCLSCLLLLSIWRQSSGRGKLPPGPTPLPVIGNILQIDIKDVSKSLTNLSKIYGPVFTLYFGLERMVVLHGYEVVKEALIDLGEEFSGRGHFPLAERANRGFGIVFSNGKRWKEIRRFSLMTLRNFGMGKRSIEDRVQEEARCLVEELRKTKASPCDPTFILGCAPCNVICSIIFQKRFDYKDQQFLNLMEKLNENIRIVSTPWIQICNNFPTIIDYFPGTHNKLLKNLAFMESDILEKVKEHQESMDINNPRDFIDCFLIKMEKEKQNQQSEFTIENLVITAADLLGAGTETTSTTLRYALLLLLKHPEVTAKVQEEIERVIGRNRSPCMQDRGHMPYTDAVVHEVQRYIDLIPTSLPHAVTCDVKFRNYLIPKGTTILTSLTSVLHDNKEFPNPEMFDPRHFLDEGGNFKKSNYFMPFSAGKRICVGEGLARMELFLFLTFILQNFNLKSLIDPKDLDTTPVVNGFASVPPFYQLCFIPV

Row | Structure (SMILES) | Effect on adenoid cystic carcinomas of the salivary gland [1] | Inhibition of CYP2C19 (CYP2C19) | Inhibition of CYP2A6 (CYP2A6) | Patients within the NR group (ER+/HER2− metastatic BC) [patients] | Number of non-responders (NR) (ER+/HER2− metastatic BC) | Number of responders (R) (ER+/HER2− metastatic BC)
1 | Cc1ccc(NC(=O)c2ccc(CN3CCN(C)CC3)cc2)cc1Nc1nccc(-c2cccnc2)n1 [imatinib] | no effect | – | – | – | – | –
2 | N#Cc1ccc(C(c2ccc(C#N)cc2)n2cncn2)cc1 [letrozole] | – | inhibits | inhibits | – | – | –
3 | CC(=O)c1c(C)c2cnc(Nc3ccc(N4CCNCC4)cn3)nc2n(C2CCCC2)c1=O [palbociclib] | – | – | – | 3 | 3 | 7
4 | CN(C)C(=O)c1cc2cnc(Nc3ccc(N4CCNCC4)cn3)nc2n1C1CCCC1 [ribociclib] | – | – | – | 7 | 6 | 8

Source: US11366102B2, “Spectographic metabolite-signature for identifying a subject's susceptibility to drugs” (Olaris, Inc., priority 2018, dated 2022)
